Measured values reported in US10801025B2, “MicroRNA therapy for pancreatic cancer” (Indiana University Research and Technology Corporation, priority 2016, dated 2020).

Experiments:
[1] = tested on: Panc-1 and MIA PaCa-2 cells; assay: Cell viability, Cell Counting Kit-8 (CCK8); format: cell-based, human; settings: 10 μM BafA1 in combination with 10 μM gemcitabine, 48 hours, compared to gemcitabine alone
Method: 5×10^3 pancreatic cancer cells per well (Panc-1, MIA PaCa-2, or COLO 357) were plated in 96-well plates and grown at 37° C. for 24 hours. Cells were then transfected with 20 nM mimic control or miR-29a mimic using DharmaFECT® 1 for 24 hours. Transfection media was then removed and replaced with complete media, and cells were allowed to recover for 24 hours and subsequently treated with varying concentrations of gemcitabine (0 μM, 0.1 μM, 1 μM, 10 μM, 100 μM). Cell viability was measured at 72 hours post-gemcitabine treatment by adding 10 μl Cell Counting Kit-8 (CCK8) reagent (Dojindo, CK04) and absorbance was measured at 450 nm. For cell viability with Chloroquine (CQ) and BafilomycinA1 (BafA1) treatment, cells were treated with 25 μM CQ (Sigma Aldrich, C6628) or 10 μM BafA1 (Sigma Aldrich, B1793) in combination with 10 μM gemcitabine for 48 hours, and viability was measured using CCK8 kit as described above.

Panc-1 cells = assay: Autophagy flux immunoblotting (LC3B, p62); format: cell-based, human; settings: 25 μM CQ added to control mimic cells
Method: Cells were then transfected with 10 nM control or miR-29a mimics using DharmaFECT®. 24 hours post-transfection, cells were treated with 25 μM CQ in complete media for 3-6 hours. Subsequently, total proteins were harvested and subjected to western blot analysis as described above.

Compound	cancer cell viability [1]	LC3BI and II and p62 accumulation (Panc-1 cells)
CO/C1=C\C(C)=C\[C@@H](C)[C@@H](O)[C@@H](C)C/C(C)=C/C=C/[C@H](OC)[C@@H]([C@@H](C)[C@@H](O)[C@H](C)[C@@]2(O)C[C@@H](O)[C@H](C)[C@@H](C(C)C)O2)OC1=O [BafA1, BafilomycinA1]	decreased cancer cell viability	
CCN(CC)CCCC(C)Nc1ccnc2cc(Cl)ccc12 (centres unmarked) [CQ, Chloroquine]		robust net increase
